Values of other authors in patent US20100113605A1 (priority 2007, published 2010).
Like-named read-outs stand apart in the source and are kept apart here.

Experiments:
rat striatal slices = conditions: for Percentage increase in [^3H]dopamine release: mean ± SEM (n ≧ 4), NS = not significantly different from basal [^3H]dopamine overflow; for release of [^3H]dopamine from superfused rat striatal slices: low (10^−7M) and high (10^−5M) concentration
[1] = tested on: extraneuronal dopamine concentrations in the nucleus accumbens
[2] = tested on: extraneuronal dopamine in the nucleus accumbens; conditions: d-amphetamine 0.5 mg/kg s.c.; tetrodotoxin 1×10^−6M
[3] = tested on: electrically-evoked levels of extracellular dopamine in the nucleus accumbens; conditions: 100 nmol icv, 1 day after injection
DAT = DAT (Rattus norvegicus, UniProt P23977); conditions: for Site of action: 'Intraneuronal' cell continues 'via DAT'; for Pharmacodynamics of effect on synaptic [DA]: [DA] = dopamine concentration, cell wraps, ends with 'increases'; for Firing dependent effect on synaptic [DA]: in vivo
Chain of DAT (P23977 whole entry): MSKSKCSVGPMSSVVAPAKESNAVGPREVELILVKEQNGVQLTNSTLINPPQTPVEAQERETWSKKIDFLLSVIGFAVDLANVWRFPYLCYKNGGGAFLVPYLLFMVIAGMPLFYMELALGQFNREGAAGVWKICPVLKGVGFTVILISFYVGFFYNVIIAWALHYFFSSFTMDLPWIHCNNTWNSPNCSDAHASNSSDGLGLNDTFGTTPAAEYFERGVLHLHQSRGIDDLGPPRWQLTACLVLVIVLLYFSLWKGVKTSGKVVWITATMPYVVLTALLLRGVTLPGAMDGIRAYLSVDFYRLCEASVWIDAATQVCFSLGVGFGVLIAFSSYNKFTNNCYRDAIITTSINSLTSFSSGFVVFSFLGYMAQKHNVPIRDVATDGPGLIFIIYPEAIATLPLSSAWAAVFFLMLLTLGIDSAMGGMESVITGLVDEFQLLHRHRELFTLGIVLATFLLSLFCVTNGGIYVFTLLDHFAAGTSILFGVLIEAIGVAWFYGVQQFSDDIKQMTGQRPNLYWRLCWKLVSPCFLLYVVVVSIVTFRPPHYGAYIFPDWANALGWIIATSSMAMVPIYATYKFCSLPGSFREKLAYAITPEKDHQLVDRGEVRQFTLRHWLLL

[4] = in vivo

SMILES | Percentage increase in [^3H]dopamine release (rat striatal slices; 10^−5M) | Percentage increase in [^3H]dopamine release (rat striatal slices; 10^−7M) | release of [^3H]dopamine from superfused rat striatal slices (rat striatal slices) | Site of action (DAT) | Pharmacodynamics of effect on synaptic [DA] (DAT) | Firing dependent effect on synaptic [DA] (DAT) | Euphoriant/psychostimulant [4] | further results
C[C@H](N)Cc1ccccc1 [d-Amphetamine, d-amphetamine] | 138 ± 15 % | 56 ± 9 % | dose-dependently released |  |  |  |  | peak increase in extraneuronal dopamine concentration in the nucleus accumbens ([1]; 0.5 mg/kg ip): 242±89%; peak increase in extraneuronal dopamine concentration in the nucleus accumbens ([1]; 1.5 mg/kg ip): 603±319%; time of maximum increase in extraneuronal dopamine ([1]; both doses, 0.5 and 1.5 mg/kg ip): 40 min; effect of tetrodotoxin in the dialysate on the drug-evoked increase in extraneuronal dopamine [2]: not altered
CN1C2CCC1C(C(=O)OCc1ccc(N=C=S)cc1)C(c1ccc(Cl)cc1)C2.Cl (stereo not drawn) [RTI-76, 3β-(ρ-chlorophenyl)tropan-2α-carboxylic acid ρ-isothio-cyanatophenylmethyl ester hydrochloride] |  |  |  |  |  |  |  | extracellular concentration of dopamine in the nucleus accumbens, electrically evoked [3]: increases the extracellular concentration of dopamine in the nucleus accumbens in a frequency-dependent manner
COC(=O)C(c1ccccc1)C1CCCCN1 (racemic) [Methylphenidate, dl-threo-methylphenidate] | 24 ± 7 % | no stimulation |  | Extraneuronal | Rapid, very large | Yes | Yes | Percentage increase in [^3H]dopamine release (rat striatal slices; 10^−5M, listed as methylphenidate): statistically significant increase
CN[C@@H](C)Cc1ccccc1 [Methamphetamine, methamphetamine] | 140 ± 10 % | 37 ± 10 % | dose-dependently released | Intraneuronal | Rapid, very large | No | Yes | 
CC(NC(C)(C)C)C(=O)c1cccc(Cl)c1 (centres unmarked) [Bupropion, bupropion] |  |  | did not release | Extraneuronal | Gradual, moderate, | Yes |  | 
CC(C)CC(N(C)C)C1(c2ccc(Cl)cc2)CCC1 (centres unmarked) [Sibutramine, sibutramine] |  |  | did not release | Extraneuronal | Gradual, moderate, | Yes | No | increase in extraneuronal concentration of dopamine in the nucleus accumbens ([1]; 2.0 mg/kg ip, freely-moving rats): failed to reach statistical significance; time of maximum increase in extraneuronal dopamine ([1]; 6.0 mg/kg ip): 60 min; maximum increase in extraneuronal concentration of dopamine in the nucleus accumbens ([1]; 6.0 mg/kg ip, at 60 min, freely-moving rats, P<0.001): 231±87%
CC(C)CC(N)C1(c2ccc(Cl)cc2)CCC1 (centres unmarked) [BTS 54 505, 1-[1-(4-chlorophenyl)cyclobutyl]-3-methylbutylamine] |  |  | did not release |  |  |  |  | 
CC(N)Cc1ccccc1 (centres unmarked) [Amphetamine] |  |  |  | Intraneuronal | Rapid, very large | No | Yes | 
CNC(CC(C)C)C1(c2ccc(Cl)cc2)CCC1 (centres unmarked) [BTS 54 354, N-{1-[1-(4-chlorophenyl)cyclobutyl]-3-methylbutyl}-N-methylamine] |  |  | did not release |  |  |  |  | 
CNC(C)Cc1ccc2c(c1)OCO2 (centres unmarked) [MDMA, methylenedioxymethamphetamine] |  |  |  | Intraneuronal | Rapid, very large | No | Yes | 
